# According to patent US20250051338A1, “TYK2 DEGRADERS AND USES THEREOF” (Kymera Therapeutics, Inc., priority 2021, published 2025):
# Experiments:
# Assay type in all cases: cell-based
# [1] = molecular target: T1, TYK2 (Homo sapiens, UniProt P29597); assay: TYK2 degradation MSD assay in EBV-B cells; set-up: endogenous in cells; host or cells: EBV-B cells; settings: 4 to 24 hours incubation, read-out: TYK2 MSD DC50 rating in EBV-B
# Procedure, shortened: (§1)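 MSD electrochemiluminescence readout of residual TYK2 in RIPA lysates after 4–24 h compound exposure at 37° C. Dosing: 9 concentrations, 1:3 steps, top 1 to 10 μM. DC50 fitted by four-parameter inhibitor vs. response regression.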
# [2] = molecular target: T1, TYK2; assay: TYK2 degradation MSD assay in OCI-LY10 cells; set-up: endogenous in cells; host or cells: EBV-B cells; settings: 4 to 24 hours incubation, read-out: TYK2 MSD DC50 rating in OCI-LY10
# Procedure, shortened: as §1
# [3] = molecular target: T1, TYK2; assay: TYK2 degradation MSD assay in human PBMC cells; set-up: endogenous in cells; host or cells: human PBMC; settings: 4 to 24 hours incubation, read-out: TYK2 MSD DC50 rating in human PBMC
# Procedure, shortened: as §1
# T1 sequence (P29597 whole entry): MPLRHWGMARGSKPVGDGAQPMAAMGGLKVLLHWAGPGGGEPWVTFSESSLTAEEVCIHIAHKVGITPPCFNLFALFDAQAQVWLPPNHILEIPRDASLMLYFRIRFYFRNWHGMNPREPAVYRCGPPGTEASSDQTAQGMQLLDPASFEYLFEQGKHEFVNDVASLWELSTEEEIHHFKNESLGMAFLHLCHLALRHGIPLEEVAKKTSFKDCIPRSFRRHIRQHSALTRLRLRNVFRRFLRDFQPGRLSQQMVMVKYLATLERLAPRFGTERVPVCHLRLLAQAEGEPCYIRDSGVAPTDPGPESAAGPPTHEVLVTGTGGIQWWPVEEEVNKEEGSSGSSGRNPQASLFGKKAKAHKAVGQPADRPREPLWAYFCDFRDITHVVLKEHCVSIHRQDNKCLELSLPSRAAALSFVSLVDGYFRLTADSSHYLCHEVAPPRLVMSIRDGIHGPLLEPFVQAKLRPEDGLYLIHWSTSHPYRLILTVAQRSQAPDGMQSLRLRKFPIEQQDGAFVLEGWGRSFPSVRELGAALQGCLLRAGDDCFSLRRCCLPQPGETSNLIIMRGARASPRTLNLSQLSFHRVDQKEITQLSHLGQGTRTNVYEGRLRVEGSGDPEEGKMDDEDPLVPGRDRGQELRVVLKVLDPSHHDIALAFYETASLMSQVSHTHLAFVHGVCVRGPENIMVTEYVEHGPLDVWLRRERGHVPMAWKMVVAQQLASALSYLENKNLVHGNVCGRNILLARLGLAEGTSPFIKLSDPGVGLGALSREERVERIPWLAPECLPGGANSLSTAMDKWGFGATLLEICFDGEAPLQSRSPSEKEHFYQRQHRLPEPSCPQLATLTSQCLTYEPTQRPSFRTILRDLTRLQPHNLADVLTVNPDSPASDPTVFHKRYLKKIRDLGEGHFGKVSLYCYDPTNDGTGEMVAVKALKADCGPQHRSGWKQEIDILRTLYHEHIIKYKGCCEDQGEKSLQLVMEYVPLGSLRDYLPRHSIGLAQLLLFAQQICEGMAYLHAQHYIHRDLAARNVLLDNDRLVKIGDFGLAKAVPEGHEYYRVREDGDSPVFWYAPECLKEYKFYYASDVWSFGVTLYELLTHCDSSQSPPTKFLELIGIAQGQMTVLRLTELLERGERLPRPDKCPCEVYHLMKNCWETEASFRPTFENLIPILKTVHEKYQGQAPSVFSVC
SMILES,DC50 [1],DC50 [2],DC50 [3]
CNc1cc(Nc2cccn(C3CCN(C(=O)COCCOCCOCCOCCc4ccc5c(c4)n(C)c(=O)n5C4CCC(=O)NC4=O)CC3)c2=O)nn2c(C(=O)N[C@@H]3C[C@@H]3F)cnc12 (stereo partly drawn) [Example K276],> 100 nM,> 100 nM,10 to 100 nM
CNc1cc(Nc2cccc(CN3CCN(CCc4ccc5c(c4)n(C)c(=O)n5C4CCC(=O)NC4=O)CC3)c2)nn2c(C(=O)NC3CC3)cnc12 (stereo not drawn) [Example K613],> 100 nM,1 to 10 nM,> 100 nM
CNc1cc(Nc2cccn(-c3ccc(C(=O)NCCCCc4ccc5c(c4)n(C)c(=O)n5C4CCC(=O)NC4=O)cn3)c2=O)nn2c(C(=O)NC3CCC3)cnc12 (stereo not drawn) [Example K321],> 100 nM,> 100 nM,> 100 nM
CCNC(=O)c1cnc(Nc2cc(CN3CCN(c4ccc5c(c4)n(C)c(=O)n5C4CCC(=O)NC4=O)CC3)ccn2)cc1Nc1cccc(-c2ncc(F)cn2)c1OC (stereo not drawn) [Example K709],1 to 10 nM,> 100 nM,> 100 nM
CNC(=O)c1cnc(Nc2ccc(CN3CC(N(C)c4ccc5c(c4)n(C)c(=O)n5C4CCC(=O)NC4=O)C3)cn2)cc1Nc1cccc(-c2ncc(F)cn2)c1OC (stereo not drawn) [Example K163],> 100 nM,> 100 nM,> 100 nM
CNc1cc(Nc2cccc(-c3ccc(CN4CCN(c5ccc(-c6ccc7c(c6)n(C)c(=O)n7C6CCC(=O)NC6=O)cc5)CC4)cn3)c2OC)nn2c(-c3cn(C(C)C)nn3)cnc12 (stereo not drawn) [Example K630],> 100 nM,1 to 10 nM,> 100 nM
CNc1cc(Nc2cccn(C3CCN(C(=O)NCCCCc4cccc5c4n(C)c(=O)n5C4CCC(=O)NC4=O)CC3)c2=O)nn2c(C(=O)N[C@@H]3C[C@@H]3F)cnc12 (stereo partly drawn) [Example K278],> 100 nM,> 100 nM,1 to 10 nM
CNc1cc(Nc2cccn(-c3ccc(C(=O)NCCCCc4ccc5c(c4)n(C)c(=O)n5C4CCC(=O)NC4=O)cn3)c2=O)nn2c(C(=O)N[C@@H]3C[C@@H]3F)cnc12 (stereo partly drawn) [Example K264],> 100 nM,> 100 nM,> 100 nM
CNc1cc(Nc2cccc(-c3ccc(CN4CCC(C#Cc5cccc6c5n(C)c(=O)n6C5CCC(=O)NC5=O)CC4)cn3)c2)nn2c(C(=O)N[C@@H]3C[C@@H]3F)cnc12 (stereo partly drawn) [Example K431],> 100 nM,1 to 10 nM,> 100 nM
CNc1cc(Nc2cccn(-c3ccc(C(=O)N4CCC(OCC#Cc5ccc6c(c5)n(C)c(=O)n6C5CCC(=O)NC5=O)CC4)cn3)c2=O)nn2c(C(=O)N[C@@H]3C[C@@H]3F)cnc12 (stereo partly drawn) [Example K394],1 to 10 nM,> 100 nM,> 100 nM
CNc1cc(Nc2cccc(-c3ccc(C(=O)N4CCN(C5CCC(c6ccc(-c7ccc8c(c7)n(C)c(=O)n8C7CCC(=O)NC7=O)cc6)CC5)CC4)cn3)c2OC)nn2c(C(=O)N[C@@H]3C[C@@H]3F)cnc12 (stereo partly drawn) [Example K617],> 100 nM,< 1 nM,> 100 nM
CNc1cc(Nc2cccn(-c3ccc(C(=O)N4CCC(OC5CC(c6ccc7c(c6)n(C)c(=O)n7C6CCC(=O)NC6=O)C5)CC4)cn3)c2=O)nn2c(C(=O)N[C@@H]3C[C@@H]3F)cnc12 (stereo partly drawn) [Example K393],> 100 nM,> 100 nM,< 1 nM
CNc1cc(Nc2cccc(-c3ccc(CN4CC5(CCN(c6cccc7c6n(C)c(=O)n7C6CCC(=O)NC6=O)CC5)C4)cn3)c2)nn2c(C(=O)N[C@@H]3C[C@@H]3F)cnc12 (stereo partly drawn) [Example K464],> 100 nM,1 to 10 nM,> 100 nM
CNC(=O)c1cnc(Nc2ccc(CN3CCN(CCc4ccc5c(c4)n(C)c(=O)n5C4CCC(=O)NC4=O)CC3)cn2)cc1Nc1cccc(-c2ncc(F)cn2)c1OC (stereo not drawn) [Example K138],< 1 nM,> 100 nM,< 1 nM
CNc1cc(Nc2cccn(-c3ccc(C(=O)N4CC5(C4)CN(c4ncc(C#Cc6ccc7c(c6)n(C)c(=O)n7C6CCC(=O)NC6=O)cn4)C5)cn3)c2=O)nn2c(C(=O)NC3CC3F)cnc12 (stereo not drawn) [Example K382],< 1 nM,> 100 nM,> 100 nM
CNc1cc(Nc2cccn(-c3ccc(C(=O)N4CC5(C4)CN(c4ccc(-c6ccc7c(c6)n(C)c(=O)n7C6CCC(=O)NC6=O)cc4)C5)cn3)c2=O)nn2c(C(=O)N[C@@H]3C[C@@H]3F)cnc12 (stereo partly drawn) [Example K372],< 1 nM,> 100 nM,> 100 nM
CNc1cc(Nc2cccn(-c3ccc(C(=O)NCCCCc4ccc5c(c4)n(C)c(=O)n5C4CCC(=O)NC4=O)cn3)c2=O)nn2c(C(N)=O)cnc12 (stereo not drawn) [Example K320],> 100 nM,> 100 nM,> 100 nM
CNc1cc(Nc2cccc(-c3ccc(C(=O)N4CCN(c5ccc(-c6ccc7c(c6)n(C)c(=O)n7C6CCC(=O)NC6=O)cc5)CC4)cn3)c2)nn2c(C(=O)N[C@@H]3C[C@@H]3F)cnc12 (stereo partly drawn) [Example K633],> 100 nM,< 1 nM,> 100 nM

SMILES,DC50 [1],DC50 [2],DC50 [3]
CNc1cc(Nc2cccc(CN3CCC(OC4CC(c5ccc6c(c5)n(C)c(=O)n6C5CCC(=O)NC5=O)C4)CC3)c2)nn2c(C(=O)NC3CC3)cnc12 (stereo not drawn) [Example K596],> 100 nM,< 1 nM,> 100 nM
CNc1cc(Nc2cccc(CN3CCC4(CCN(c5ccc(-c6ccc7c(c6)n(C)c(=O)n7C6CCC(=O)NC6=O)cc5)C4)C3)c2)nn2c(C(=O)NC3CC3)cnc12 (stereo not drawn) [Example K588],> 100 nM,1 to 10 nM,> 100 nM
CNC(=O)c1cnc(Nc2ccc(C(=O)NCCCCc3ccc4c(c3)n(C)c(=O)n4C3CCC(=O)NC3=O)cn2)cc1Nc1cccc(-c2ncc(F)cn2)c1OC (stereo not drawn) [Example K107],> 100 nM,> 100 nM,< 1 nM
CNc1cc(Nc2cccn(-c3cccc(C(=O)NCCOCCOCCc4ccc5c(c4)n(C)c(=O)n5C4CCC(=O)NC4=O)c3)c2=O)nn2c(C(=O)N[C@@H]3C[C@@H]3F)cnc12 (stereo partly drawn) [Example K235],> 100 nM,> 100 nM,1 to 10 nM
Cn1c(=O)n(C2CCC(=O)NC2=O)c2ccc(-c3ccc(N4CCN(Cc5ccc(-c6cccc(Oc7ccc8ncc(C(=O)NC9CC9)n8n7)c6)nc5)CC4)cc3)cc21 (stereo not drawn) [Example K456],> 100 nM,> 100 nM,> 100 nM
CNc1cc(N2CCc3c(C4CCN(CC5CCN(c6ccc(-c7ccc8c(c7)n(C)c(=O)n8C7CCC(=O)NC7=O)cc6)CC5)CC4)cccc32)nn2c(C(=O)N[C@@H]3C[C@@H]3F)cnc12 (mixture of isomers) [Example K536],> 100 nM,< 1 nM,> 100 nM
CNc1cc(Nc2cccn(-c3ccc(C(=O)NCCOCCOCCOCCOCCNc4cncc(N5CCCC(C(=O)Nc6ccc(=O)n(CC(=O)OC)c6)C5)c4)cn3)c2=O)nn2c(C(=O)N[C@@H]3C[C@@H]3F)cnc12 (stereo partly drawn) [Example K618],> 100 nM,> 100 nM,> 100 nM
CNc1cc(Nc2cccn(-c3ccc(C(=O)N4CCC(n5cc(-c6ccc7c(c6)n(C)c(=O)n7C6CCC(=O)NC6=O)cn5)CC4)cn3)c2=O)nn2c(C(=O)N[C@@H]3C[C@@H]3F)cnc12 (stereo partly drawn) [Example K395],< 1 nM,> 100 nM,> 100 nM
CNc1cc(-c2ccc(C(=O)NCCCCc3cccc4c3n(C)c(=O)n4C3CCC(=O)NC3=O)cc2)nn2c(C(=O)N[C@@H]3C[C@@H]3F)cnc12 (stereo partly drawn) [Example K299],> 100 nM,> 100 nM,> 100 nM
CNc1cc(Nc2cccn(-c3ccc(C(=O)N4CCC(N5CCC(N6CCN(c7ccc8c(c7)n(C)c(=O)n8C7CCC(=O)NC7=O)CC6)CC5)CC4)cn3)c2=O)nn2c(C(=O)N[C@@H]3C[C@@H]3F)cnc12 (stereo partly drawn) [Example K453],< 1 nM,< 1 nM,> 100 nM
CNc1cc(Nc2cccc(CN3CCC(N4CC(N5CCN(c6ccc7c(c6)n(C)c(=O)n7C6CCC(=O)NC6=O)CC5)C4)CC3)c2)nn2c(C(=O)NC3CC3)cnc12 (stereo not drawn) [Example K589],> 100 nM,< 1 nM,> 100 nM
CNc1cc(N2CCc3c(-c4ccc(CN5CCN(c6ccc(-c7ccc8c(c7)n(C)c(=O)n8C7CCC(=O)NC7=O)cc6)CC5)cn4)cccc32)nn2c(C(=O)N[C@@H]3C[C@@H]3F)cnc12 (stereo partly drawn) [Example K505],10 to 100 nM,1 to 10 nM,> 100 nM
CNC(=O)c1cnc(Nc2ccc(CN3CCN(c4ccc5c(c4)n(C)c(=O)n5C4CCC(=O)NC4=O)CC3)cn2)cc1Nc1cccc(-c2ncc(F)cn2)c1OC (stereo not drawn) [Example K177],< 1 nM,> 100 nM,< 1 nM
CNc1cc(N2CCc3c(N4CCC(CN5CCN(c6ccc7c(c6)n(C)c(=O)n7C6CCC(=O)NC6=O)CC5)CC4)cccc32)nn2c(C(=O)N[C@@H]3C[C@@H]3F)cnc12 (stereo partly drawn) [Example K638],> 100 nM,< 1 nM,> 100 nM
CNc1cc(Nc2cccn(-c3ccc(C(=O)NCCCCCCCCCCc4ccc5c(c4)n(C)c(=O)n5C4CCC(=O)NC4=O)cn3)c2=O)nn2c(C(=O)N[C@@H]3C[C@@H]3F)cnc12 (stereo partly drawn) [Example K261],1 to 10 nM,> 100 nM,< 1 nM
CNc1cc(Nc2cccn(-c3ccc(C(=O)NCCOCCOCCc4ccc5c(c4)n(C)c(=O)n5C4CCC(=O)NC4=O)cn3)c2=O)nn2c(C(=O)N[C@@H]3C[C@@H]3F)cnc12 (stereo partly drawn) [Example K262],> 100 nM,> 100 nM,1 to 10 nM
CNC(=O)c1cnc(Nc2ccc(CN(C)C3CCN(c4cccc5c4n(C)c(=O)n5C4CCC(=O)NC4=O)C3)cn2)cc1Nc1cccc(-c2ncc(F)cn2)c1OC (stereo not drawn) [Example K171],< 1 nM,> 100 nM,> 100 nM
